Test results taken from PMC5533163 (Medicines, 2015).
Read-outs that look alike come from different tables or passages of the source.

Assays:
P-gp = molecular target: T1, P-gp (Homo sapiens, UniProt P08183); assay: P-gp inhibition, calcein-AM uptake in hMDR1-MDCK-II and MDCK-II cells; type: cell-based; conditions: calcein-AM 1 µM, mean ± SD of three experiments
T1 construct: host or cells: hMDR1-MDCK-II (canine kidney cells transfected with human MDR1)
Experimental: MDCK-II and hMDR1-MDCK-II cells were seeded in 96-well plates at 70,000 cells/well in 200 µL of culture medium. The medium was changed at 24 h after seeding and the assay was performed 48 h later. Test samples and positive control at various concentrations (100–0.4 µM) were added to the cells in 50 µL of transport buffer and incubated at 37 °C for 10 min. […] The % increase in calcein-AM uptake was calculated as described earlier [18].

[1] = humans, cited from earlier work
CYP2C9 = molecular target: T2, CYP2C9 (Homo sapiens, UniProt P11712); assay: Reversible inhibition of recombinant CYP2C9; type: in vitro ADME; conditions: recombinant enzyme, 100–0.4 µM, data not shown
T2 construct: purchased BD Gentest (Woburn, MA, USA)
Experimental: (§1) The assay conditions for determining reversible and time dependent inhibition of CYPs were similar as reported earlier. Test samples or positive controls were serially diluted in a solution (100 µL) of cofactors mix, control protein (0.05 mg of protein/mL) and Glucose-6-phosphate dehydrogenase (G6PDH) to achieve six concentrations (100–0.4 µM). To account for any inherent fluorescence, the plates were incubated at 37 °C for 10 min and fluorescence readings were taken. Enzyme substrate mixture (100 µL) was added to initiate the reaction and the plates were further incubated for 15 (CYP1A2), 30 (CYP3A4, 2C9 and 2C19) or 45 min (CYP2D6). The reaction was stopped by the addition of 75 µL of acetonitrile/0.5M Tris base (80:20). Fluorescence was measured on Spectramax M5 plate reader (Molecular Devices, Sunnyvale, CA, USA) at specified excitation and emission wavelengths for each substrate. IC50 values (co-incubation assay) were obtained from concentration-response curves generated by plotting log concentration versus % control.

CYP3A4 [2] = molecular target: T3, CYP3A4 (Homo sapiens, UniProt P08684); assay: Reversible (co-incubation) and time dependent (pre-incubation) inhibition of recombinant CYP3A4, fluorescent substrate BFC; type: in vitro ADME; design: purchased BD Gentest (Woburn, MA, USA); conditions: based on IC50 shift ratio criterion > 1.5
Experimental: (§2) The reaction was terminated and fluorescence was measured as described above. IC50 values (pre-incubation assay) were obtained as above. The IC50 shift fold was calculated as the ratio of IC50 (co-incubation)/IC50 (pre-incubation).

CYP2C19 = molecular target: T4, CYP2C19 (Homo sapiens, UniProt P33261); assay: Reversible inhibition of recombinant CYP2C19; type: in vitro ADME; conditions: recombinant enzyme, 100–0.4 µM, data not shown
T4 construct: purchased BD Gentest (Woburn, MA, USA)
Experimental: as §1

CYP3A4 [3] = molecular target: T3, CYP3A4; type: in vitro ADME; design: The reaction was initiated by the addition of HLM (0.6 mg/mL protein); tissue Corning Life Sciences (Cambridge, MA, USA); host or cells: pooled human liver microsomes, 25 donors, mixed gender; conditions: Lineweaver-Burk plot, testosterone metabolism
Experimental: (§3) The incubation mixture (250 µL) consisted of NADPH regeneration system (NADP^+, glucose-6-phosphate, and G6PDH) in 0.1M potassium phosphate buffer (pH 7.4). […] The reaction was initiated by the addition of HLM (0.6 mg/mL protein). After further incubation of 30 min (for CYP3A4) or 20 min (for CYP2D6) at 37 °C, reaction was terminated by addition of ice-cold acetonitrile containing 5 μL corticosterone (internal standard for CYP3A4, 20 µM) or 5 μL niflumic acid (internal standard for CYP2D6, 1 µM). The mixture was centrifuged at 10,000 rpm for 5 min and the supernatant (200 μL) was transferred into vials for HPLC (CYP3A4) or UHPLC (CYP2D6) analysis. IC50 values were obtained from concentration-response curves generated by plotting log concentration versus % of control by using GraphPad Prism 6 (La Jolla, CA, USA).
(§4) The type of inhibition (competitive or non-competitive) was predicted by Lineweaver-Burk Plot (velocity^−1 vs. substrate^−1). Apparent inhibition constant (Ki) was calculated from the x-intercept of the Dixon plot (slope of the primary plot vs. inhibitor concentration), which was fitted by liner regression using GraphPad Prism 6 (La Jolla, CA, USA).

CYP2D6 [4] = molecular target: T5, CYP2D6 (Homo sapiens, UniProt P10635); assay: Reversible inhibition and enzyme kinetics of CYP2D6 in pooled HLM (dextromethorphan to dextrorphan); type: in vitro ADME; design: The reaction was initiated by the addition of HLM (0.6 mg/mL protein); tissue Corning Life Sciences (Cambridge, MA, USA); host or cells: pooled human liver microsomes, 25 donors, mixed gender; conditions: for Type of inhibition of CYP2D6 in HLM: Lineweaver-Burk plot
Experimental: as §3, §4
The quantification of dextromethorphan, dextrorphan and niflumic acid (internal standard) was done by using Agilent LC-quadrupole time-of-flight (QToF) (model 6230)-mass spectrometry (Agilent Technologies, Palo Alto, CA, USA). The UHPLC system consisted of a binary pump, autosampler, degasser, and a column compartment. The mass detector was equipped with an electron spray ionization interface, which was connected to Agilent MassHunter Work Station (B.05.00). Dextromethorphan and dextrorphan were analyzed using an Agilent Zorbax SB-C8 RRHD column (100 mm × 2.1 mm I.D., 1.8 µm). A column temperature of 35 °C and sample temperature of 15 °C were maintained during analysis. The mobile phase consisted of water (A) and Acetonitrile (B), both containing 0.1% formic acid, which were applied in the following linear gradient elution: 0 min, 80%A: 20%B in next 10 min to 30%A: 70%B and in next 2 min to 100% B, at a flow rate of 0.2 mL/min. Separation was followed by a 2 min washing procedure with 100% B and re-equilibration period of 3.0 min. The total run time for analysis was 10 min. The injection volume was 2 µL. […] The LOD and LOQ of dextromethorph and dextrorphan, were 10 ng/mL and 5 ng/mL, respectively.

CYP1A2 = molecular target: T6, CYP1A2 (Homo sapiens, UniProt P05177); assay: Inhibition of recombinant CYP1A2; type: in vitro ADME; conditions: recombinant enzyme
T6 construct: purchased BD Gentest (Woburn, MA, USA)
Experimental: as §2

CYP2D6 [5] = molecular target: T5, CYP2D6; assay: Reversible (co-incubation) and time dependent (pre-incubation) inhibition of recombinant CYP2D6, fluorescent substrate AMMC; type: in vitro ADME; design: purchased BD Gentest (Woburn, MA, USA); conditions: for IC50: recombinant enzyme, mean ± SD of three experiments

T5 sequence (P10635 whole entry): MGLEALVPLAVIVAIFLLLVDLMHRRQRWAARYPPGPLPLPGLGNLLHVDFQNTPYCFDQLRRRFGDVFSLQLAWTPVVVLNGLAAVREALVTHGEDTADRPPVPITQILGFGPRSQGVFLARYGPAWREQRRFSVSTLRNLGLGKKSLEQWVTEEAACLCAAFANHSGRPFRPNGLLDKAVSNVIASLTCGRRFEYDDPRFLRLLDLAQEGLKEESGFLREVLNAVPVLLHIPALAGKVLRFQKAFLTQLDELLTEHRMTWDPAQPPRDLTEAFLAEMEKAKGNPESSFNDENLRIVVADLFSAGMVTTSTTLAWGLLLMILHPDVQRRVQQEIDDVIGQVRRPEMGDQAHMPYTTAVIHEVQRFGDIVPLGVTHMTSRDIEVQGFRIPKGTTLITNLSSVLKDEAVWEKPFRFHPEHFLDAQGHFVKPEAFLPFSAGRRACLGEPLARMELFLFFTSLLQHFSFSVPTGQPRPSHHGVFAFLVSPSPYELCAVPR
T3 sequence (P08684 whole entry): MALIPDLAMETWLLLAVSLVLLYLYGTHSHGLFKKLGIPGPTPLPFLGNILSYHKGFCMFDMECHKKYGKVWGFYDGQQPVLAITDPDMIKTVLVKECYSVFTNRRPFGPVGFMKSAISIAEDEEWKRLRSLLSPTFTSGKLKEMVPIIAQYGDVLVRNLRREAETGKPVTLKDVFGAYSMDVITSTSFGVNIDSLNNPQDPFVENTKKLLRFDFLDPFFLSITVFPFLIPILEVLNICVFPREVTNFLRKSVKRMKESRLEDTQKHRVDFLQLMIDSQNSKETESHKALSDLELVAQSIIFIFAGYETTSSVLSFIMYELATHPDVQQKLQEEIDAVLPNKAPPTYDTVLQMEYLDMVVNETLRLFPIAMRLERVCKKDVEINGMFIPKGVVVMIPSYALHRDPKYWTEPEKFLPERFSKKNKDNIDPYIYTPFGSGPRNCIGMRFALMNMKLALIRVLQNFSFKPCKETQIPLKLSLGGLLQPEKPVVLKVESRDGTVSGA
T4 sequence (P33261 whole entry): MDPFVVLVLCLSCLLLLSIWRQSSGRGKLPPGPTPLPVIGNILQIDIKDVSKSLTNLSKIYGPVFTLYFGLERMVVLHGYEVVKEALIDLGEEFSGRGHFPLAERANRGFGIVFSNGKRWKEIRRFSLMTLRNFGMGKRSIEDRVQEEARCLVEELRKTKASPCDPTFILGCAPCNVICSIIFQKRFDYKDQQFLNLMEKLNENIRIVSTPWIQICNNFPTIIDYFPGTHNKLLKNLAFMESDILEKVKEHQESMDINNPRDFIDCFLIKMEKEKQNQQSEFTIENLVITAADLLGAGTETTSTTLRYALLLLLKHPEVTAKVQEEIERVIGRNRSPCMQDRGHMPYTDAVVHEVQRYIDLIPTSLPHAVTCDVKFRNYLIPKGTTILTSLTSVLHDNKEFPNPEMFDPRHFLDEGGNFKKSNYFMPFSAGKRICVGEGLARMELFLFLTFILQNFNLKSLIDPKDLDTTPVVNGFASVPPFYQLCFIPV
T2 sequence (P11712 whole entry): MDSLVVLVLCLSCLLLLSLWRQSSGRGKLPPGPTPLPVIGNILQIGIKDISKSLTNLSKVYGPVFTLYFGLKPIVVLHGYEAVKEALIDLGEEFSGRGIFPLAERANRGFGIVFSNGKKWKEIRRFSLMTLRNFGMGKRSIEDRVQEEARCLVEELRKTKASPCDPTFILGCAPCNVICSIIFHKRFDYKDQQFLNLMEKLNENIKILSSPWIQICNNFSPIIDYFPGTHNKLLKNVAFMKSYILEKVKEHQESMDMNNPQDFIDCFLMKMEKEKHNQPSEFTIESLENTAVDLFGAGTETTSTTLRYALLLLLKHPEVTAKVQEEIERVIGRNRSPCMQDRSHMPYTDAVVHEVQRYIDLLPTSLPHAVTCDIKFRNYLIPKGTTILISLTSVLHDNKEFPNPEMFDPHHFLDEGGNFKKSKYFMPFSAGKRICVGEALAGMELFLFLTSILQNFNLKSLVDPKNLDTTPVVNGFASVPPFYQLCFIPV
T1 sequence (P08183 whole entry): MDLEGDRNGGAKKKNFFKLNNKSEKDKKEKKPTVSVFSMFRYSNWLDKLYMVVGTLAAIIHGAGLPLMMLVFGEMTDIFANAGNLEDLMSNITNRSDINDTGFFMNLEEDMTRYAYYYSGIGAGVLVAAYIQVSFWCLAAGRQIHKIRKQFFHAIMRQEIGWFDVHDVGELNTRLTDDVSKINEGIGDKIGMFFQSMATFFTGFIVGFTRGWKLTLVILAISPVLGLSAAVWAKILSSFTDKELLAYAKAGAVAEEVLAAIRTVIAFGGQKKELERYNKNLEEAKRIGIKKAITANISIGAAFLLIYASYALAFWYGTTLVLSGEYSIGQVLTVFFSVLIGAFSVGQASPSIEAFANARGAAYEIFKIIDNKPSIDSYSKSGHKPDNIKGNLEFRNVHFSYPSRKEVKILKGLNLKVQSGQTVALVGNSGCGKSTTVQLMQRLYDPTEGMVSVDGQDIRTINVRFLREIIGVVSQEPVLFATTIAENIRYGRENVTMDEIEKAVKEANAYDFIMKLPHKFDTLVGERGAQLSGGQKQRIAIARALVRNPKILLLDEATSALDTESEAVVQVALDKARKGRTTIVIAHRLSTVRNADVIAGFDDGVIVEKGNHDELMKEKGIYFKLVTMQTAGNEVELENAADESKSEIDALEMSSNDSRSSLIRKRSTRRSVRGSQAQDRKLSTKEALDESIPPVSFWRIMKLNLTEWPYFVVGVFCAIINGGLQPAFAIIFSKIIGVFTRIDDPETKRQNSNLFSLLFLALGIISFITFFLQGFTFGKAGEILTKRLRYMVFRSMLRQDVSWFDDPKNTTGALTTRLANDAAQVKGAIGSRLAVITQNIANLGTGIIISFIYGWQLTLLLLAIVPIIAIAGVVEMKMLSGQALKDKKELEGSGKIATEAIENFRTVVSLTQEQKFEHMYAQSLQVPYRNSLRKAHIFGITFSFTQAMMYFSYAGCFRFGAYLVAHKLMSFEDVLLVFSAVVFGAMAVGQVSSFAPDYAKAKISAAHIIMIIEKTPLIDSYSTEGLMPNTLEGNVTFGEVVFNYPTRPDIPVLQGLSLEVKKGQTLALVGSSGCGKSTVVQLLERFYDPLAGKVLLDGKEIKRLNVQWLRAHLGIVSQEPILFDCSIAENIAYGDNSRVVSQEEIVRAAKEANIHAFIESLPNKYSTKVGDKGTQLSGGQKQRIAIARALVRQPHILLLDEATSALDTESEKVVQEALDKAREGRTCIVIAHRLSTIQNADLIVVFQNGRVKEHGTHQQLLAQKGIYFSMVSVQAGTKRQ
T6 sequence (P05177 whole entry): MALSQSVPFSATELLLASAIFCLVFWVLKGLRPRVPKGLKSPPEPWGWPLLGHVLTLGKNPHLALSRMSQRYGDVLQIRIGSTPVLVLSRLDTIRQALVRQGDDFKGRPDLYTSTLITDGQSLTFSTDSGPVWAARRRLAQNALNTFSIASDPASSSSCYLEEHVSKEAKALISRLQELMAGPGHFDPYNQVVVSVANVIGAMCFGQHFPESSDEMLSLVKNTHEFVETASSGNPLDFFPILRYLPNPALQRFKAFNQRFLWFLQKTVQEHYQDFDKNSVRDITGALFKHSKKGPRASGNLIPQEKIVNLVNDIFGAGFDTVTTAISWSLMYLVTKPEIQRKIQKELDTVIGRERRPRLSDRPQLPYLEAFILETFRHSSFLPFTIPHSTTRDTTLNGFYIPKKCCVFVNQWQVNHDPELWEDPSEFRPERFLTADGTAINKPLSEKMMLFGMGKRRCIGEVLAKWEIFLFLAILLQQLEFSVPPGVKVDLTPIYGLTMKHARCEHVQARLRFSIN

CCOC(=O)C1=C[C@]2(CC)CCCN3CCc4c(n1c1ccccc41)[C@@H]32 [Vinpocetine, ethyl apovincaminate]
EC50 (P-gp): 8 µM
Maximum plasma concentration (Cmax) ([1]; oral): 60 ng/mL
Oral bioavailability [1]: 6%
Inhibition of CYP2C9 (CYP2C9): no activity
Inhibition of CYP2C9 (CYP2C9; listed as vinpocetine): No inhibition
Time dependent inhibition (TDI) of CYP3A4 (CYP3A4 [2]): no TDI
Inhibition of CYP2C19 (CYP2C19): no activity
Inhibition of CYP2C19 (CYP2C19; listed as vinpocetine): No inhibition
Type of inhibition of CYP3A4 in HLM (CYP3A4 [3]): competitive inhibition
Type of inhibition of CYP3A4 in HLM (CYP3A4 [3]; listed as vinpocetine): competitive
Type of inhibition of CYP2D6 in HLM (CYP2D6 [4]; dextromethorphan metabolism): non-competitive inhibition
Type of inhibition of CYP2D6 in HLM (CYP2D6 [4]; dextromethorphan metabolism, listed as vinpocetine): competitive
IC50 at 20 min (CYP2D6 [4]; human, pooled human liver microsomes, pH 7.4, probe dextromethorphan (to dextrorphan), pooled HLM, dextromethorphan as probe substrate): 19 µM
Ki (CYP2D6 [4]; pooled HLM, dextromethorphan metabolism, Dixon plot): 26 µM
Inhibition of CYP1A2 (CYP1A2): no activity
Time dependent inhibition (TDI) of CYP2D6 (CYP2D6 [5]; based on IC50 shift ratio criterion > 1.5): no TDI
IC50 (CYP2D6 [5]; 30 min pre-incubation (TDI assay), read-out: CYP2D6 (recombinant) IC50 Pre-incubation): 37 ± 1.6 µM
IC50 (CYP2D6 [5]; co-incubation (reversible inhibition), read-out: CYP2D6 (recombinant) IC50 Co-incubation): 6.5 ± 1.1 µM
